Measurements published in PMC9737772, “Synthesis and Anti-Inflammatory Activity of 1-Methylhydantoin Cinnamoyl Imides” (Molecules, 2022).

Tested on: xylene-induced ear edema in mice
Experiment: Xylene-induced ear edema in mice
Format: in vivo, Kunming mice
Conditions: for Degree of Edema: 30 μL xylene, 30 min, mean ± SD, n = 6; for Inhibition of ear swelling: xylene-induced ear edema
Procedure: To evaluate the differences in anti-inflammatory effects of the five compounds, the in vivo anti-inflammatory experiment was conducted based on the acute inflammation model of ear swelling induced by xylene. Under the inflammatory effect of 30 μL of xylene, the degree of ear swelling in the blank group and each experimental group was different. […] With an increase in dose the degree of ear swelling decreased, and the effect of ear swelling inhibition was more significant at high dose (100 mg/kg). Under the action of drugs, the five target compounds (1–5) have significant inhibitory effects on ear swelling (Figure 6).
Adult male Kunming mice (18–20 g) were bought from Liaoning Changsheng Biotechnology Co., Ltd. (Shenyang, China, License No. SCXK (Liao) 2015-0001). The breeding is carried out under standard conditions without pathogens (constant room temperature 20–22 °C, 55 ± 5% humidity, 12 h light–dark cycle and free access to food and water). The research protocol has been approved by the Animal Experiment Ethics Committee of the School of Pharmacy of Jilin University (20190048). All experimental operations follow the principles of laboratory animal care, and all animal experiments are conducted in accordance with the Guide for the Care and Use of Laboratory Animals (released by the National Research Council).
In this experiment, Kunming mice were randomly divided into two groups. One group was given 5% sodium carboxymethyl cellulose solution as the blank group, and the other group was given different concentrations of the target compound as the experimental group (high, medium and low doses); continuous intragastric administration was two days and the volume of intragastric administration was 0.2 mL. One hour after the last administration, 30 μL of xylene was evenly smeared on both sides of the mouse’s right ear. After 30 min, the mouse’s right ear was obviously red and swollen and the capillary congestion was severe. Cervical vertebrae were dislocated and sacrificed. The ears on both sides were quickly cut off, an 8 mm ear punch was used to punch holes at the same position on the ears on both sides and they were immediately weighed to calculate the weight difference.
The formula for the difference in ear weight is as follows:(2) D=Wr−Wl where Wr was the weight of the right ear and Wl was the weight of the left ear.
The formula for the inhibition rate of ear swelling is as follows:(3) Inhibition %=Dc−Dt/Dc×100% where Dc was the extent of ear edema of the control group and Dt was the extent of ear edema of the treatment group.

[1] = 25 mg/kg intragastric for two days
[2] = 50 mg/kg intragastric for two days
[3] = 100 mg/kg (high dose) intragastric
[4] = 100 mg/kg intragastric for two days

SMILES | Degree of Edema [1] [mg] | Inhibition of ear swelling (25 mg/kg intragastric) [%] | Degree of Edema [2] [mg] | Inhibition of ear swelling (50 mg/kg intragastric) [%] | Inhibition of ear swelling [3] [%] | Degree of Edema [4] [mg]
CC(=O)Oc1ccc(/C=C/C(=O)N2C(=O)CN(C)C2=O)cc1 [Compound 4, (E)-4-(3-(3-methyl-2,5-dioxoimidazolidin-1-yl)-3-oxoprop-1-en-1-yl)phenyl acetate] | 11.03 ± 0.32 | 9.96 | 8.79 ± 0.76 | 28.24 | 40.16 | 7.33 ± 0.51
CN1CC(=O)N(C(=O)/C=C/c2ccco2)C1=O [Compound 2, (E)-3-(3-(furan-2-yl)acryloyl)-1-methylimidazolidine-2,4-dione] | 8.68 ± 0.79 | 29.14 | 7.96 ± 0.23 | 35.02 | 49.47 | 6.19 ± 1.13
